{"source": "patent US9932572B2", "about": "“Modified Caspase polypeptides and uses thereof” (BELLICUM PHARMACEUTICALS, INC., priority 2013, dated 2018)", "key": {"[1]": {"system": "iCasp9M.IRES.GFPhigh-transduced CTLs", "test": "SCID mouse-human xenograft model, human CD3+/GFP+ T cells in tumors", "type": "in vivo, NOD/SCID mice", "details": "single dose of CID (50 μg AP20187 i.p.) vs carrier; tumors 3 days after", "protocol": "Non-obese diabetic severe combined immunodeficient (NOD/SCID) mice, 6 to 8 weeks of age, were irradiated (250 rad) and injected subcutaneously in the right flank with 10×10^6 to 15×10^6 LCLs resuspended in Matrigel (BD Bioscience). Two weeks later mice bearing tumors that were approximately 0.5 cm in diameter were injected into the tail vein with a 1:1 mixture of nontransduced and iCasp9.I.GFPhigh-transduced EBV CTLs (total 15×10^6). At 4 to 6 hours prior and 3 days after CTL infusion, mice were injected intraperitoneally with recombinant hIL-2 (2000 U; Proleukin; Chiron). On day 4, the mice were randomly segregated in 2 groups: 1 group received CID (50 μg AP20187, intraperitoneally) and 1 group received carrier only (16.7% propanediol, 22.5% PEG400, and 1.25% Tween 80, intraperitoneally). […] By FACS analysis, the number of GFP+ cells within the gated CD3^+ population was evaluated. […]\nThe function of iCasp9M in vivo, is graphically illustrated in FIG. 7. […] On day 3 after CTL administration, mice received either CID (50 μg AP20187; (black diamonds, n=6) or carrier only (black squares, n=5) and on day 6 the presence of human CD3+/GFP+ T cells in the tumors was analyzed. Human CD3+ T cells isolated from the tumors of a control group of mice that received only nontransduced CTLs (15×10^6 CTLs; n=4) were used as a negative control for the analysis of CD3+/GFP+ T cells within the tumors."}, "[2]": {"system": "gene-modified allodepleted cells", "test": "Induction of apoptosis with AP20187 in gene-modified allodepleted cells (annexin V/7-AAD)", "type": "cell-based, human", "protocol": "(§1) Suicide gene functionality was assessed by adding a small molecule synthetic homodimerizer, AP20187 (Ariad Pharmaceuticals; Cambridge, Mass.), at 10 nM final concentration the day following CD19 immunomagnetic selection. Cells were stained with annexin V and 7-amino-actinomycin (7-AAD)(BD Pharmingen) at 24 hours and analyzed by flow cytometry. Cells negative for both Annexin V and 7-AAD were considered viable, cells that were annexin V positive were apoptotic, and cells that were both annexin V and 7-AAD positive were necrotic. The percentage killing induced by dimerization was corrected for baseline viability as follows: Percentage killing=100%−(% Viability in AP20187-treated cells÷% Viability in non-treated cells).\nCells were maintained in T cell medium containing 50 U/ml IL-2 until 22 days after transduction. A portion of cells was reactivated on 24-well plates coated with […] OKT3 and 1 μg/ml anti-CD28 (Clone CD28.2, BD Pharmingen, San Jose, Calif.) for 48 to 72 hours. CD19 expression and suicide gene function in both reactivated and non-reactivated cells were measured on day 24 or 25 post transduction."}, "non-transduced cells": {"system": "non-transduced cells", "test": "Viability of non-transduced cells with AP20187", "type": "cell-based, human", "details": "non-transduced cells (n=6)", "protocol": "as §1"}, "iCasp9-transduced MSCs": {"system": "iCasp9-transduced MSCs", "test": "Apoptosis studies in vitro, undifferentiated MSCs (annexin V-PE/7-AAD)", "type": "cell-based, human", "details": "magnetically immunoselected iCasp9-CD19-positive cells after exposure to CID", "protocol": "Undifferentiated MSCs. The chemical inducer of dimerization (CID) (AP20187; ARIAD Pharmaceuticals, Cambridge, Mass.) was added at 50 nM to iCasp9-transduced MSCs cultures in complete medium. Apoptosis was evaluated 24 hours later by FACS analysis, after cell harvest and staining with annexin V-PE and 7-AAD in annexin V binding buffer (BD Biosciences, San Diego, Calif.). Control iCasp9-transduced MSCs were maintained in culture without exposure to CID."}, "[3]": {"system": "iCasp9-ΔCD19-transduced MSCs", "test": "In vivo killing of MSCs in SCID mouse model (qPCR)", "design": "species or system SCID mice"}, "CD3+ΔCD19+ cells": {"system": "CD3+ΔCD19+ cells", "test": "CASPALLO phase 1 clinical trial, AP1903 in patients with GvHD after iCasp9+ T cells", "type": "in vivo, human", "details": "after AP1903 administration", "text": "Three patients received iCasp9+ T cells after haplo-CD34^+ stem cell transplantation (SCT), at dose levels between about 1×10^6 to about 3×10^6 cells/kg."}, "[4]": {"molecular_target": "chimeric Caspase-9 polypeptide (Homo sapiens, UniProt P62942, F37V)", "sequence (P62942 2-108 F37V limits assumed)": "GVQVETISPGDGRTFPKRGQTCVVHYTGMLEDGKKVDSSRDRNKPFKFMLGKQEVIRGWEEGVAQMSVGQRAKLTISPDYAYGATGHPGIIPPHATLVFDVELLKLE", "details": "cited from earlier work"}, "[5]": {"details": "cited from earlier work"}, "HEK293T/16 cells": {"system": "HEK293T/16 cells", "test": "Secreted alkaline phosphatase (SEAP) reporter-based surrogate killing assay", "type": "cell-based, human", "details": "for relative SEAP activity Units (basal activity): no AP1903, higher SEAP = lower basal activity; for basal signaling: compared to iCasp9 WT; for cost of higher IC50 to AP1903: versus unmodified iCasp9", "protocol": "FIG. 45 provides an analysis of SEAP assays. To examine both basal signaling and AP1903-induced activity, 10^6 early-passage HEK293T/16 cells were co-transfected with various amounts of plasmids expressing Caspase-9 mutants along with 500 ng of SEAP reporter plasmid, used as a surrogate marker for cell viability. […] of the mixture was seeded onto each well of a 96-well plate. […] For the assay, 4-MUP was hydrolyzed by SEAP to 4-methylumbelliferon, a metabolite that can be excited at 364 nm and detected at an emission of 448 nm. Because SEAP is used as a marker for cell viability, reduced SEAP readings correspond with increased iCaspase-9 activities.\nEarly passage HEK293T/16 (ATCC, Manassas, Va.) was maintained in IMDM, GlutaMAX™ (Life Technologies, Carlsbad, Calif.) supplemented with 10% FBS, 100 U/mL penicillin, and 100 U/mL streptomycin until transfection in a humidified, 37° C., 5% CO2/95% air atmosphere. Cells in logarithmic-phase growth were transiently transfected with 800 ng to 2 μg of expression plasmid encoding iCasp9 mutants and 500 ng of an expression plasmid encoding SRα promoter driven SEAP per million cells in 15-mL conical tubes. […] GeneJammer® Transfection Reagent at a ratio of 3 μl per ug of plasmid DNA was used to transiently transfect HEK293T/16 in the absence of antibiotics. 100 μl or 2 mL of the transfection mixture was added to each well in 96-well or 6-well plate, respectively.\nBriefly, after 65° C. heat denaturation for 45 minutes to reduce background caused by endogenous (and serum-derived) alkaline phosphatases that are sensitive to heat, 5 μl of supernatants was added to 95 μl of PBS and added to 100 μl of substrate buffer, containing 1 μl of 100 mM 4-methylumbelliferyl phosphate (4-MUP; Sigma, St. Louis, Mo.) re-suspended in 2 M diethanolamine. Hydrolysis of 4-MUP by SEAP produces a fluorescent […] with excitation/emission (355/460 nm), which can be easily measured. Assays were performed in black opaque 96-well plates to minimize fluorescence leakage between wells (FIG. 45)."}, "[6]": {"details": "10 nM, 24 hours, day after immunomagnetic selection"}}, "note": "Read-outs that look alike come from different tables or passages of the source."}
{"molecule": "CC[C@H](C(=O)N1CCCC[C@H]1C(=O)O[C@H](CCc1ccc(OC)c(OC)c1)c1cccc(OCC(=O)NCC(CNC(=O)COc2cccc([C@@H](CCc3ccc(OC)c(OC)c3)OC(=O)[C@@H]3CCCCN3C(=O)[C@@H](CC)c3cc(OC)c(OC)c(OC)c3)c2)CN(C)C)c1)c1cc(OC)c(OC)c(OC)c1", "note": "[AP20187]", "values": [{"measurement": "reduction in the number of human CD3+/GFP+ T cells", "setting": "[1]", "result": "> 99", "unit": "%"}, {"measurement": "AP20187-treated cells remained viable", "setting": "[2]; [6]", "result": "about 5.5%"}, {"measurement": "Killing efficiency after correction for baseline viability", "setting": "[2]; [6]", "result": "about 92.9%"}, {"measurement": "killing efficiency", "setting": "[2]; reactivated, CD25 positive cells", "result": "about 93%"}, {"measurement": "viability with AP20187", "setting": "non-transduced cells", "result": "about 86%"}, {"measurement": "selected cells become apoptotic", "setting": "iCasp9-transduced MSCs", "result": "More than 95%"}, {"measurement": "proportion of surviving iCasp9-positive cells, % of the original population", "setting": "[3]", "result": 0.7, "unit": "%"}]}
{"molecule": "CC[C@H](C(=O)N1CCCC[C@H]1C(=O)O[C@H](CCc1ccc(OC)c(OC)c1)c1cccc(OCC(=O)NCCNC(=O)COc2cccc([C@@H](CCc3ccc(OC)c(OC)c3)OC(=O)[C@@H]3CCCCN3C(=O)[C@@H](CC)c3cc(OC)c(OC)c(OC)c3)c2)c1)c1cc(OC)c(OC)c(OC)c1", "note": "(relative stereo) [AP1903, 2-Piperidinecarboxylic acid, 1-[(2S)-1-oxo-2-(3,4,5-trimethoxyphenyl)butyl]-, 1,2-ethanediylbis[imino(2-oxo-2,1-ethanediyl)oxy-3,1-phenylene[(1R)-3-(3,4-dimethoxyphenyl)propylidene]] ester, [2S-[1(R*),2R*[S*[S*[1(R*),2R*]]]]]-(9CI)]", "values": [{"measurement": "resolution of skin and liver aGvHD", "setting": "CD3+ΔCD19+ cells", "result": "≤ 24", "unit": "h"}, {"measurement": "amount of AP1903 needed in vitro for effective signaling of cells", "setting": "[4]", "result": "10 to 100", "unit": "nM"}, {"measurement": "safety / adverse effects in Phase I study", "setting": "[5]; 0.01 mg/kg to 1.0 mg/kg dose range, healthy volunteers, listed as API903", "result": "No serious adverse events"}, {"measurement": "plasma levels, % of maximal concentration", "setting": "[5]; 2 hours post-dose", "result": "~7", "unit": "%"}, {"measurement": "plasma levels, % of maximal concentration", "setting": "[5]; 10 hours post-dose", "result": "~1", "unit": "%"}, {"measurement": "Doses well-tolerated", "setting": "[5]; Phase I study", "result": "up to 1 mg/kg"}]}
{"molecule": "N405Q: chimeric modified Caspase-9 polypeptide, SEQ ID NO: 26 (protein) GFGDVGALESLRGNADLAYILSMEPCGHCLIINNVNFCRESGLRTRTGSNIDCEKLRRRFSSLHFMVEVKGDLTAKKMVLALLELARQDHGALDCCVVVILSHGCQASHLQFPGAVYGTDGCPVSVEKIVNIFNGTSCPSLGGKPKLFFIQACGGEQKDHGFEVASTSPEDESPGSNPEPDATPFQEGLRTFDQLDAISSLPTPSDIFVSYSTFPGFVSWRDPKSGSWYVETLDDIFEQWAHSEDLQSLLLRVANAVSVKGIYKQMPGCFQFLRKKLFFKTS", "values": [{"measurement": "relative SEAP activity Units (basal activity)", "setting": "HEK293T/16 cells; 1 μg iCasp9 per million cells", "result": "179081 relative SEAP activity Units"}, {"measurement": "relative SEAP activity Units (basal activity)", "setting": "HEK293T/16 cells; 2 μg iCasp9 per million cells", "result": "175529 relative SEAP activity Units"}, {"measurement": "basal signaling", "setting": "HEK293T/16 cells", "result": "lower basal signaling"}, {"measurement": "cost of higher IC50 to AP1903", "setting": "HEK293T/16 cells", "result": "< 10", "unit": "fold"}]}
{"molecule": "D330A: chimeric modified Caspase-9 polypeptide, SEQ ID NO: 24 (protein) GFGDVGALESLRGNADLAYILSMEPCGHCLIINNVNFCRESGLRTRTGSNIDCEKLRRRFSSLHFMVEVKGDLTAKKMVLALLELARQDHGALDCCVVVILSHGCQASHLQFPGAVYGTDGCPVSVEKIVNIFNGTSCPSLGGKPKLFFIQACGGEQKDHGFEVASTSPEDESPGSNPEPDATPFQEGLRTFDQLAAISSLPTPSDIFVSYSTFPGFVSWRDPKSGSWYVETLDDIFEQWAHSEDLQSLLLRVANAVSVKGIYKQMPGCFNFLRKKLFFKTS", "values": [{"measurement": "relative SEAP activity Units (basal activity)", "setting": "HEK293T/16 cells; 1 μg iCasp9 per million cells", "result": "148928 relative SEAP activity Units"}, {"measurement": "relative SEAP activity Units (basal activity)", "setting": "HEK293T/16 cells; 2 μg iCasp9 per million cells", "result": "136863 relative SEAP activity Units"}, {"measurement": "basal signaling", "setting": "HEK293T/16 cells", "result": "lower basal signaling"}, {"measurement": "cost of higher IC50 to AP1903", "setting": "HEK293T/16 cells", "result": "< 5", "unit": "fold"}]}
{"molecule": "D330A-N405Q: chimeric modified Caspase-9 polypeptide, double mutant, SEQ ID NO: 28 (protein) GFGDVGALESLRGNADLAYILSMEPCGHCLIINNVNFCRESGLRTRTGSNIDCEKLRRRFSSLHFMVEVKGDLTAKKMVLALLELARQDHGALDCCVVVILSHGCQASHLQFPGAVYGTDGCPVSVEKIVNIFNGTSCPSLGGKPKLFFIQACGGEQKDHGFEVASTSPEDESPGSNPEPDATPFQEGLRTFDQLAAISSLPTPSDIFVSYSTFPGFVSWRDPKSGSWYVETLDDIFEQWAHSEDLQSLLLRVANAVSVKGIYKQMPGCFQFLRKKLFFKTS", "values": [{"measurement": "relative SEAP activity Units (basal activity)", "setting": "HEK293T/16 cells; 1 μg iCasp9 per million cells", "result": "205772 relative SEAP activity Units"}, {"measurement": "relative SEAP activity Units (basal activity)", "setting": "HEK293T/16 cells; 2 μg iCasp9 per million cells", "result": "174366 relative SEAP activity Units"}, {"measurement": "basal signaling", "setting": "HEK293T/16 cells", "result": "lower basal signaling"}]}
